Results reported in ChEMBL document CHEMBL2163201, “Discovery of novel pyrrolopyridazine scaffolds as transient receptor potential vanilloid (TRPV1) antagonists” (Bioorg Med Chem Lett, 2012).
Converted amounts (≈) assume the structure as drawn.

Tests used:
[1] = Equilibrium solubility of the compound in DMSO preincubated for 4 hrs; type: physicochemical
[2] = Apparent permeability across apical to basolateral side of human Caco2 cells; type: ADME, cell-based; conditions: Caco-2

solubility at 4 h [1] | Papp A→B [2] | Compound
260 µM (≈ 83.8 µg/mL) |  | CCN(CCO)C(=O)c1cc2ccccn2c1-c1cccc(C)c1
> 400 µM |  | COc1ccc(-c2c(C(=O)N3CCC[C@H]3CO)cc3cccnn23)cc1
190 µM (≈ 74.4 µg/mL) |  | CCN(CCO)C(=O)c1cc2cc(C)cnn2c1-c1cccc(C(F)(F)F)c1
360 µM (≈ 136 µg/mL) |  | CCN(CCO)C(=O)c1cc2ccccn2c1-c1cccc(C(F)(F)F)n1
28 µM (≈ 11 µg/mL) |  | CCN(CCO)C(=O)c1cc2ccc(C)nn2c1-c1cccc(C(F)(F)F)c1
260 µM (≈ 94.8 µg/mL) | 58 ×10⁻⁶ cm/s | COc1cccc(-c2c(C(=O)N3CCCCC3CO)cc3ccccn23)c1 (stereo unspecified)
270 µM (≈ 102 µg/mL) |  | CCN(CCO)C(=O)c1nc2ccccn2c1-c1cccc(C(F)(F)F)c1
150 µM (≈ 62 µg/mL) |  | CCN(Cc1ccn[nH]1)C(=O)c1cc2cccnn2c1-c1cccc(C(F)(F)F)c1
240 µM (≈ 90.6 µg/mL) |  | CCN(CCO)C(=O)c1cc2ccncn2c1-c1cccc(C(F)(F)F)c1
24 µM (≈ 9.08 µg/mL) |  | CCN(CCO)C(=O)c1nc2cccnc2n1-c1cccc(C(F)(F)F)c1
25 µM (≈ 10.2 µg/mL) |  | CCN(CCO)C(=O)c1cc2cc(OC)cnn2c1-c1cccc(C(F)(F)F)c1
200 µM (≈ 75.5 µg/mL) | 42 ×10⁻⁶ cm/s | CCN(CCO)C(=O)c1cc2cccnn2c1-c1cccc(C(F)(F)F)c1
> 400 µM |  | CCN(CCO)C(=O)c1oc2cccnc2c1-c1cccc(C(F)(F)F)c1
170 µM (≈ 66.5 µg/mL) |  | CCN(CCO)C(=O)c1cc2cccnn2c1Cc1cccc(C(F)(F)F)c1
250 µM (≈ 89.9 µg/mL) |  | N#Cc1cccc(-c2c(C(=O)N3CCCCC3CO)cc3ccccn23)c1 (stereo unspecified)
32 µM (≈ 12.5 µg/mL) |  | CCN(CCO)C(=O)c1cc2c(C)ccnn2c1-c1cccc(C(F)(F)F)c1
280 µM (≈ 90.3 µg/mL) | 60 ×10⁻⁶ cm/s | CCCN(CCO)C(=O)c1cc2ccccn2c1-c1ccccc1
340 µM (≈ 115 µg/mL) |  | CCN(CCO)C(=O)c1cc2cccnn2c1-c1cccc(OC)c1
> 300 µM |  | CCN(CCO)C(=O)c1cc2cccnc2n1-c1cccc(C(F)(F)F)c1
190 µM (≈ 64.5 µg/mL) | 56 ×10⁻⁶ cm/s | CCN(CCO)C(=O)c1cc2ccccn2c1-c1cccc(OC)n1
220 µM (≈ 88.7 µg/mL) |  | O=C(Cc1cc2cccnn2c1-c1cccc(C(F)(F)F)c1)N1CCC[C@@H]1CO
330 µM (≈ 107 µg/mL) |  | CCN(CCO)C(=O)c1cc2cccnn2c1-c1cccc(C)c1
150 µM (≈ 50.8 µg/mL) | 54 ×10⁻⁶ cm/s | CCN(CCO)C(=O)c1cc2ccccn2c1-c1cccc(OC)c1
360 µM (≈ 140 µg/mL) |  | O=C(c1cc2cccnn2c1-c1cccc(C(F)(F)F)c1)N1CCC[C@H]1CO
25 µM (≈ 10.7 µg/mL) |  | CCN(CCO)C(=O)c1cc2cccnn2c1-c1cccc(C(=O)Nc2ccccc2)c1
22 µM (≈ 8.3 µg/mL) |  | CCN(CCO)C(=O)c1cc2cccnn2c1-c1ccc(C(F)(F)F)cc1
